What all share (assay): Competitive isoTOP-ABPP in situ (fragment-treated cells)
Type in all cases: cell-based

The target in experiment [1] is cysteines in MDA-MB-231 and Ramos cells (Homo sapiens, UniProt Q13526).
Experiment [2] deals with T1, cysteines in MDA-MB-231 and Ramos cells (Homo sapiens, UniProt Q96CM8).
T1 sequence (Q96CM8 42-615): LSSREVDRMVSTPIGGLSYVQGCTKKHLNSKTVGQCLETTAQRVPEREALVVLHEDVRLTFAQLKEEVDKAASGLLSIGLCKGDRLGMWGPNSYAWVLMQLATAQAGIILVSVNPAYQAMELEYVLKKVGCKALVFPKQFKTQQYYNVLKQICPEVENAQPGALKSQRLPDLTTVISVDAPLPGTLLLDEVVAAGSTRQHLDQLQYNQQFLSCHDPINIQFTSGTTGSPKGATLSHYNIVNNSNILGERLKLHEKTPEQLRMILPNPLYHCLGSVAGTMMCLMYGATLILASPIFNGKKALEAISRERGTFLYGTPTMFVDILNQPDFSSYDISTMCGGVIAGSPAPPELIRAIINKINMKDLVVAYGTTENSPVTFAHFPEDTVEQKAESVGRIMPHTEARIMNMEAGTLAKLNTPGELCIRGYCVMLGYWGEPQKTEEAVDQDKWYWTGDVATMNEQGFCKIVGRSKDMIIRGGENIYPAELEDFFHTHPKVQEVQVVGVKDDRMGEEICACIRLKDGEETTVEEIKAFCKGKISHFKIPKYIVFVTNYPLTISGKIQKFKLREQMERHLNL

Experiment [3] has as its target T2, cysteines in MDA-MB-231 and Ramos cells (Homo sapiens, UniProt Q13418).
T2 sequence (Q13418 1-452): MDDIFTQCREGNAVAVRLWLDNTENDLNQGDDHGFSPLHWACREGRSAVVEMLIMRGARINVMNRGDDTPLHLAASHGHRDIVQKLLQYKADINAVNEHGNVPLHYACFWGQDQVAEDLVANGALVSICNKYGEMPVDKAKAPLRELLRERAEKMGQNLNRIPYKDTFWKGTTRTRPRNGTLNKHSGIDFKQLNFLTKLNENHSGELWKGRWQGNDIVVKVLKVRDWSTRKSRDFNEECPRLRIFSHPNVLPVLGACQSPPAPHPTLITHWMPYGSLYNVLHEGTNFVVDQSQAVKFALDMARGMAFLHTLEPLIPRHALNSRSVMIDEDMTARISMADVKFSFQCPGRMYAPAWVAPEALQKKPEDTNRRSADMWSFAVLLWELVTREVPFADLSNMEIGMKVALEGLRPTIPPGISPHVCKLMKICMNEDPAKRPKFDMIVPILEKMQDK

Experiment [4] deals with T3, cysteines in MDA-MB-231 and Ramos cells (Homo sapiens, UniProt Q9UMS0).
T3 sequence (Q9UMS0 10-254): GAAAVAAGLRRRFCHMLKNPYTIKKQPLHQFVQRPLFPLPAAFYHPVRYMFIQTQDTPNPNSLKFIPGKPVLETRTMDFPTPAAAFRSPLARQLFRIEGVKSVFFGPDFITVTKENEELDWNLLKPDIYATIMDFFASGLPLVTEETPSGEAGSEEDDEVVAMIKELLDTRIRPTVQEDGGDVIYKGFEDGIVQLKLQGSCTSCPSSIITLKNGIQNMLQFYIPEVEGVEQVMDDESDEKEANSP

Experiment [5] deals with T4, cysteines in MDA-MB-231 and Ramos cells (Homo sapiens, UniProt P13667).
T4 sequence (P13667 21-645): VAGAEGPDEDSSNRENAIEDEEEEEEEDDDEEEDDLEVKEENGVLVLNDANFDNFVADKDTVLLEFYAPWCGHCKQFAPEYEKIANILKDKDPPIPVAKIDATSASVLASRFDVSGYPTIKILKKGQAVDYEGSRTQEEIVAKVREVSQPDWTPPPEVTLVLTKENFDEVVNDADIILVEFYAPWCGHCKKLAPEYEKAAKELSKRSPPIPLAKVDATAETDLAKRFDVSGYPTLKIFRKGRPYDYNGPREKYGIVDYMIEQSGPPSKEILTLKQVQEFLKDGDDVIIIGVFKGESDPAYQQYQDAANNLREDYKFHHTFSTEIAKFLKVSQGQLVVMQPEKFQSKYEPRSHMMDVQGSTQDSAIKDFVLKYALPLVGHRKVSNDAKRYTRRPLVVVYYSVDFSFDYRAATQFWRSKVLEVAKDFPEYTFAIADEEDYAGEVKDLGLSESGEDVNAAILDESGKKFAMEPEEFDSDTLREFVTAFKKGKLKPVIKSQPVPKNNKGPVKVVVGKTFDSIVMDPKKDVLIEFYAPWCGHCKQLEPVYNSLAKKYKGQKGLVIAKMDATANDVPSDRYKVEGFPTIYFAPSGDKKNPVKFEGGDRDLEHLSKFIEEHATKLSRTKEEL

Experiment [6] concerns the target cysteines in MDA-MB-231 and Ramos cells (Homo sapiens, UniProt P61978).
Experiment [7] deals with T5, cysteines in MDA-MB-231 and Ramos cells (Homo sapiens, UniProt O95229).
T5 sequence (O95229 1-277): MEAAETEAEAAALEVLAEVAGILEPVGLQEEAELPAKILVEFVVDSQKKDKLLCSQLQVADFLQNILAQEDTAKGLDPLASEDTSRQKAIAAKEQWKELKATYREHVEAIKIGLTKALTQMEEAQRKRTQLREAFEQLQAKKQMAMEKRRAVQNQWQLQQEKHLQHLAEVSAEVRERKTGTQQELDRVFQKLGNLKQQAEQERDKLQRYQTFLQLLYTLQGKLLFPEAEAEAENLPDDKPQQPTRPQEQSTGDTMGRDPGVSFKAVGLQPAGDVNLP

Chain of cysteines in MDA-MB-231 and Ramos cells (Homo sapiens, UniProt Q13526) (Q13526 whole entry): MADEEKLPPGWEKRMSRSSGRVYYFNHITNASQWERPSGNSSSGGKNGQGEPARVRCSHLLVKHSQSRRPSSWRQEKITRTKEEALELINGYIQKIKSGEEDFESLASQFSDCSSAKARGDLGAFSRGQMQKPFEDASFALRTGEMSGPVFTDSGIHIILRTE

With `COc1ccc2c(c1)CCCN2C(=O)CCl` [compound 2], the “isoTOP-ABPP reactivity Q13526_C113 PIN1” value in experiment [1] (200 μM, insitu, 231) stood at 20.0. Further, the “isoTOP-ABPP reactivity Q96CM8_C64 ACSF2” value in experiment [2] (200 μM, insitu, 231) is listed as 20.0. Also, the “isoTOP-ABPP reactivity Q13418_C346 ILK” value in experiment [3] (200 μM, insitu, 231) was found to be 1.4. The “isoTOP-ABPP reactivity Q9UMS0_C213 NFU1” value in experiment [4] (200 μM, insitu, 231) is 7.4. For the same compound, in experiment [5] (200 μM, insitu, 231), the “isoTOP-ABPP reactivity P13667_C206 PDIA4” value came out at 2.6 and the “isoTOP-ABPP reactivity P13667_C555 PDIA4” value was 3.2. Also, the “isoTOP-ABPP reactivity P61978_C132 HNRNPK” value in experiment [6] (200 μM, insitu, 231) stood at 5.0. Moreover, the “isoTOP-ABPP reactivity O95229_C54 ZWINT” value in experiment [7] (200 μM, insitu, 231) was 3.4.
For the compound `COc1ccc(C2CC(c3cccs3)=NN2C(=O)CCl)cc1` (stereo not drawn) [compound 4], the “isoTOP-ABPP reactivity Q13526_C113 PIN1” value in experiment [1] (100 μM in situ 231) is 3.4. Also, in experiment [2] (100 μM in situ 231), the “isoTOP-ABPP reactivity Q96CM8_C64 ACSF2” value was found to be 20.0. The “isoTOP-ABPP reactivity Q13418_C346 ILK” value in experiment [3] (100 μM in situ 231) is recorded as 0.8. Besides, the “isoTOP-ABPP reactivity Q9UMS0_C213 NFU1” value in experiment [4] (100 μM in situ 231) is 4.4. Besides, in experiment [5] (100 μM in situ 231), the “isoTOP-ABPP reactivity P13667_C206 PDIA4” value is on record as 6.8 and the “isoTOP-ABPP reactivity P13667_C555 PDIA4” value stood at 9.0. Besides, the “isoTOP-ABPP reactivity P61978_C132 HNRNPK” value in experiment [6] (100 μM in situ 231) is 3.8. For the same compound, in experiment [7] (100 μM in situ 231), the “isoTOP-ABPP reactivity O95229_C54 ZWINT” value was 12.4.
Consider `COc1cc2c(cc1OC)CN(C(=O)CCl)CC2` [compound 8], for which the “isoTOP-ABPP reactivity Q13526_C113 PIN1” value in experiment [1] (200 μM, insitu, 231) came to 2.6. Moreover, in experiment [2] (200 μM, insitu, 231), the “isoTOP-ABPP reactivity Q96CM8_C64 ACSF2” value was 20.0. For the same compound, in experiment [5] (200 μM, insitu, 231), the “isoTOP-ABPP reactivity P13667_C206 PDIA4” value is given as 15.2 and the “isoTOP-ABPP reactivity P13667_C555 PDIA4” value was determined as 20.0. Also, the “isoTOP-ABPP reactivity P61978_C132 HNRNPK” value in experiment [6] (200 μM, insitu, 231) turned out to be 4.2. The “isoTOP-ABPP reactivity O95229_C54 ZWINT” value in experiment [7] (200 μM, insitu, 231) was 3.1.
Regarding `O=C(CCl)N1CCC(Cc2ccccc2)CC1` [compound 9], the “isoTOP-ABPP reactivity Q13526_C113 PIN1” value in experiment [1] (200 μM, insitu, 231) stood at 3.3. For the same compound, the “isoTOP-ABPP reactivity Q13418_C346 ILK” value in experiment [3] (200 μM, insitu, 231) turned out to be 2.7. Besides, in experiment [5] (200 μM, insitu, 231), the “isoTOP-ABPP reactivity P13667_C206 PDIA4” value stood at 1.1 and the “isoTOP-ABPP reactivity P13667_C555 PDIA4” value was found to be 1.4. Further, the “isoTOP-ABPP reactivity P61978_C132 HNRNPK” value in experiment [6] (200 μM, insitu, 231) came to 1.4. For the same compound, the “isoTOP-ABPP reactivity O95229_C54 ZWINT” value in experiment [7] (200 μM, insitu, 231) was found to be 3.7.
Take `O=C(CCl)N1CCN(S(=O)(=O)c2ccccc2F)CC1` [compound 10]: the “isoTOP-ABPP ratio Q13526_C113” value in experiment [1] (200 μM, insitu, 231) is 2.0; in experiment [1] (200 μM, insitu, ramos), 1.3. Moreover, in experiment [2] (200 μM, insitu, 231), the “isoTOP-ABPP ratio Q96CM8_C64” value stood at 20.0. The “isoTOP-ABPP ratio Q13418_C346” value is recorded as 1.1 in experiment [3] (200 μM, insitu, 231) and 8.3 in experiment [3] (200 μM, insitu, ramos). Further, in experiment [4] (200 μM, insitu, 231), the “isoTOP-ABPP ratio Q9UMS0_C213” value was 20.0. In addition, the “isoTOP-ABPP ratio P13667_C206” value in experiment [5] (200 μM, insitu, 231) is recorded as 3.8. Also, the “isoTOP-ABPP ratio P13667_C555” value was found to be 3.3 in experiment [5] (200 μM, insitu, 231) and 1.4 in experiment [5] (200 μM, insitu, ramos). The “isoTOP-ABPP ratio P61978_C132” value was found to be 5.6 in experiment [6] (200 μM, insitu, 231) and 1.6 in experiment [6] (200 μM, insitu, ramos). For the same compound, the “isoTOP-ABPP ratio O95229_C54” value in experiment [7] (200 μM, insitu, 231) is 2.3.
For `Cn1cc(S(=O)(=O)N2CCOCC2)cc1C(=O)NC(=O)CCl` [compound 11], the “isoTOP-ABPP ratio Q13526_C113” value in experiment [1] (100 μM in situ 231) stood at 0.7. Also, in experiment [2] (100 μM in situ 231), the “isoTOP-ABPP ratio Q96CM8_C64” value was found to be 1.5. In addition, the “isoTOP-ABPP ratio Q13418_C346” value in experiment [3] (100 μM in situ 231) came to 0.6. The “isoTOP-ABPP ratio P13667_C206” value in experiment [5] (100 μM in situ 231) came to 4.1. Further, in experiment [6] (100 μM in situ 231), the “isoTOP-ABPP ratio P61978_C132” value turned out to be 0.9. Besides, the “isoTOP-ABPP ratio O95229_C54” value in experiment [7] (100 μM in situ 231) amounted to 1.2.
With `O=C(CCl)NC(=O)NC12CC3CC(CC(C3)C1)C2` [compound 12], the “isoTOP-ABPP ratio Q13526_C113” value in experiment [1] (200 μM, insitu, 231) was determined as 0.6. Also, the “isoTOP-ABPP ratio Q96CM8_C64” value in experiment [2] (200 μM, insitu, 231) is 17.9. Moreover, the “isoTOP-ABPP ratio Q13418_C346” value in experiment [3] (200 μM, insitu, 231) is 0.6. Further, the “isoTOP-ABPP ratio Q9UMS0_C213” value in experiment [4] (200 μM, insitu, 231) is 20.0. Also, in experiment [5] (200 μM, insitu, 231), the “isoTOP-ABPP ratio P13667_C206” value worked out at 16.6 and the “isoTOP-ABPP ratio P13667_C555” value came to 20.0. In experiment [6] (200 μM, insitu, 231), the “isoTOP-ABPP ratio P61978_C132” value was 7.5. Further, the “isoTOP-ABPP ratio O95229_C54” value in experiment [7] (200 μM, insitu, 231) is 20.0.

These data come from patent US10670605B2, “Cysteine reactive probes and uses thereof” (The Scripps Research Institute, priority 2015, dated 2020).
